Columns and labels:
[1] = test system: T-cell clones A2b and A2c; experiment: Stimulating activity on T-cell clones A2b and A2c, stated for both clones together; type: cell-based, rat
[2] = test system: T-cell clones A2b and A2c; details: from European patent application 0 262 710 / EP-A-0 181 364; cited from earlier work
[3] = test system: T-cell clone A2b; experiment: T-cell clone proliferation (3H-thymidine uptake, stimulation index), clone A2b; type: cell-based, rat; details: polypeptide with sequence homologous to antigen A 180-188

RARLQLELS [lamin A and C]
response of the T-cell clones A2b and A2c [1]: react positively

proteoglycan protein of cartilage: proteoglycan protein of cartilage (J.Biol.Chem. 261, 3519-3535)
recognition by / response of T-cell clones A2b and A2c [2]: recognized

TFGLQPQDT [antigen from Epstein-Barr virus]
response of T-cell clone A2b [3]: responds

Reference: US5354691A, “Polypeptides and derivatives thereof as well as their use in pharmaceutical and diagnostic compositions” (priority 1987, dated 1994)
